What all share (test): Antibiotic susceptibility testing, Vitek System
What all share (type): cell-based, Staphylococcus epidermidis

The subject of one experiment is S. epidermidis S3. The method, then: (§1) Compound 6, synthesized as above, was evaluated as an antimicrobial agent against selected antibiotics resistant Staphylococcus epidermidis. The bacterial strains were obtained from Laboratory (2b56) of the Botany and Microbiology Department, College of Science, King Saud University, Riyadh. The bacterial strains were isolated from the skin of healthy students and identified by an automated antibiotic susceptibility testing system, Vitek System (BioMerieux, France).

The subject of another experiment is S. epidermidis S2. The method, then:
as §1

The subject of the next experiment is S. epidermidis S1. The method, then:
as §1
Note: key: S = susceptible; R = Resistant; I = intermediate.

Regarding `O=C(O)c1cn(C2CC2)c2cc(N3CCNCC3)c(F)cc2c1=O` [Ciprofloxacin], the “susceptibility to standard antibiotics” value with S. epidermidis S3 is recorded as “R”; in the experiment on S. epidermidis S2 it was “R”; in the experiment with S. epidermidis S1, “S”.

Regarding `CCC[C@@H]1C[C@@H](C(=O)N[C@@H]([C@H]2O[C@H](SC)[C@H](O)[C@@H](O)[C@H]2O)[C@H](C)Cl)N(C)C1` [Clindamycin], the “susceptibility to standard antibiotics” value was “R” with S. epidermidis S3, “R” with S. epidermidis S2 and “S” with S. epidermidis S1.

In the case of `CCCCCCCCCC(=O)N[C@@H](Cc1c[nH]c2ccccc12)C(=O)N[C@H](CC(N)=O)C(=O)N[C@@H](CC(=O)O)C(=O)N[C@@H]1C(=O)NCC(=O)N[C@@H](CCCN)C(=O)N[C@@H](CC(=O)O)C(=O)N[C@H](C)C(=O)N[C@@H](CC(=O)O)C(=O)NCC(=O)N[C@H](CO)C(=O)N[C@@H]([C@H](C)CC(=O)O)C(=O)N[C@@H](CC(=O)c2ccccc2N)C(=O)O[C@@H]1C` [Daptomycin], the “susceptibility to standard antibiotics” value with S. epidermidis S3 is “R”; with S. epidermidis S2, “R”; with S. epidermidis S1, “S”.

For the compound `CC[C@H]1OC(=O)[C@H](C)[C@@H](O[C@H]2C[C@@](C)(OC)[C@@H](O)[C@H](C)O2)[C@H](C)[C@@H](O[C@@H]2O[C@H](C)C[C@H](N(C)C)[C@H]2O)[C@](C)(O)C[C@@H](C)C(=O)[C@H](C)[C@@H](O)[C@]1(C)O` [Erythromycin], the “susceptibility to standard antibiotics” value in the experiment on S. epidermidis S3, with S. epidermidis S2 and in the experiment on S. epidermidis S1 was “R” each time.

On to `C[C@@H]1O[C@@H]1P(=O)(O)O` [Fosfomycin], for which the “susceptibility to standard antibiotics” value in the experiment on S. epidermidis S3, with S. epidermidis S2 and with S. epidermidis S1 was “S” each time.

With `CC(=O)O[C@H]1C[C@@]2(C)[C@@H](C[C@@H](O)[C@H]3[C@@]4(C)CC[C@@H](O)[C@@H](C)[C@@H]4CC[C@@]32C)/C1=C(\CCC=C(C)C)C(=O)O` [Fusidic Acid], the “susceptibility to standard antibiotics” value is given as “R” in the experiment on S. epidermidis S3, “R” in the experiment on S. epidermidis S2 and “S” in the experiment with S. epidermidis S1.

Regarding `C[C@H]1COc2c(N3CCN(C)CC3)c(F)cc3c(=O)c(C(=O)O)cn1c23` [Levofloxacin], the “susceptibility to standard antibiotics” value in the experiment on S. epidermidis S3 is recorded as “S”; with S. epidermidis S2, “R”; in the experiment on S. epidermidis S1, “S”.

As for `CC(=O)NC[C@H]1CN(c2ccc(N3CCOCC3)c(F)c2)C(=O)O1` [Linezolid], the “susceptibility to standard antibiotics” value in the experiment on S. epidermidis S3 was “R”; in the experiment with S. epidermidis S2 it was “R”; in the experiment on S. epidermidis S1, “S”.

Consider `C[C@@H](O)[C@H]1C(=O)N2C(C(=O)O)=C(SCCN=CN)C[C@H]12` [Lmipenem], for which the “susceptibility to standard antibiotics” value with S. epidermidis S3, with S. epidermidis S2 and in the experiment on S. epidermidis S1 was “S” in each case.

Turning to `COc1c(N2C[C@@H]3CCCN[C@@H]3C2)c(F)cc2c(=O)c(C(=O)O)cn(C3CC3)c12` [Moxifloxacin], the “susceptibility to standard antibiotics” value in the experiment with S. epidermidis S3 is given as “S”; in the experiment with S. epidermidis S2 it was “R”; in the experiment on S. epidermidis S1, “S”.

Turning to `C/C(=C\C(=O)OCCCCCCCCC(=O)O)C[C@@H]1OC[C@H](C[C@@H]2O[C@H]2[C@@H](C)[C@H](C)O)[C@@H](O)[C@H]1O` [Mupirocin], the “susceptibility to standard antibiotics” value was “R” in the experiment with S. epidermidis S3, “R” in the experiment on S. epidermidis S2 and “S” in the experiment with S. epidermidis S1.

On to `Cc1onc(-c2ccccc2)c1C(=O)N[C@@H]1C(=O)N2[C@@H]1SC(C)(C)[C@@H]2C(=O)O` [Oxacillin], for which the results for the “susceptibility to standard antibiotics” value in the experiment with S. epidermidis S3, in the experiment with S. epidermidis S2 and with S. epidermidis S1 were “R”, “R” and “S”, respectively.

On to `CO[C@H]1/C=C/O[C@@]2(C)Oc3c(C)c(O)c4c(O)c(c(/C=N/N5CCN(C)CC5)c(O)c4c3C2=O)NC(=O)/C(C)=C\C=C\[C@H](C)[C@H](O)[C@@H](C)[C@@H](O)[C@@H](C)[C@H](OC(C)=O)[C@@H]1C` [Rifampin], for which the “susceptibility to standard antibiotics” value in the experiment with S. epidermidis S3 is given as “R”; in the experiment with S. epidermidis S2 it was “R”; with S. epidermidis S1, “S”.

Regarding `CN(C)[C@@H]1C(O)=C(C(N)=O)C(=O)[C@@]2(O)C(O)=C3C(=O)c4c(O)cccc4[C@@](C)(O)[C@H]3C[C@@H]12` [Tetracycline], the “susceptibility to standard antibiotics” value with S. epidermidis S3, in the experiment on S. epidermidis S2 and with S. epidermidis S1 was “S” in each case.

In the case of `CN[C@H](CC(C)C)C(=O)N[C@H]1C(=O)N[C@@H](CC(N)=O)C(=O)N[C@H]2C(=O)N[C@H]3C(=O)N[C@H](C(=O)N[C@H](C(=O)O)c4cc(O)cc(O)c4-c4cc3ccc4O)[C@H](O)c3ccc(c(Cl)c3)Oc3cc2cc(c3O[C@@H]2O[C@H](CO)[C@@H](O)[C@H](O)[C@H]2O[C@H]2C[C@](C)(N)[C@H](O)[C@H](C)O2)Oc2ccc(cc2Cl)[C@H]1O` [Vancomycin], the “susceptibility to standard antibiotics” value in the experiment with S. epidermidis S3 was “S”; in the experiment with S. epidermidis S2, “R”; with S. epidermidis S1, “S”.

For Gentamicin, the “susceptibility to standard antibiotics” value in the experiment with S. epidermidis S3, in the experiment on S. epidermidis S2 and in the experiment on S. epidermidis S1 was “S” each time.

With Teicoplanin, the “susceptibility to standard antibiotics” value was “S” in the experiment on S. epidermidis S3, “R” in the experiment on S. epidermidis S2 and “S” in the experiment with S. epidermidis S1.

The values are drawn from US10501426B1, “Synthesis of thiazole derivative as anticancer and anti-antibiotics resistant bacteria agent” (priority 2019, dated 2019).
